Assay: Liquid dish neat product liquid-air partition coefficient
Format: physicochemical
Conditions: not given

| Compound | Log of liquid dish neat product liquid-air partition coefficient (Comment Code K/L) |
| --- | --- |
| C=CC(C)(CCC=C(C)C)OC(C)OCC (stereo not drawn) [Material 916] | K (Log of liquid dish neat product liquid-air partition coefficient greater than or equal to −7) |
| CC1=CCCC(C)=CCC(C)(C)C=CC1 [Material 706] | K (Log of liquid dish neat product liquid-air partition coefficient greater than or equal to −7) |
| CCC=C1OC(=O)c2ccccc21 [Material 805] | K (Log of liquid dish neat product liquid-air partition coefficient greater than or equal to −7) |
| CCCCCCCCCCC=O [Material 1102] | K (Log of liquid dish neat product liquid-air partition coefficient greater than or equal to −7) |
| CC(C)(O)Cc1ccccc1 [Material 649] | K (Log of liquid dish neat product liquid-air partition coefficient greater than or equal to −7) |
| C=C(C)C1CCC2(C)CCCC(=C)C2C1 (stereo not drawn) [Material 615] | K (Log of liquid dish neat product liquid-air partition coefficient greater than or equal to −7) |
| Cc1cccc(CCO)c1 [Material 928] | K (Log of liquid dish neat product liquid-air partition coefficient greater than or equal to −7) |
| CC(=O)C=CC1C(C)=CCC(C)C1(C)C (stereo not drawn) [Material 704] | K (Log of liquid dish neat product liquid-air partition coefficient greater than or equal to −7) |
| COc1ccc(CCC(C)=O)cc1 [Material 803] | K (Log of liquid dish neat product liquid-air partition coefficient greater than or equal to −7) |
| Cc1ccc(CC(C)C=O)cc1 (stereo not drawn) [Material 742] | K (Log of liquid dish neat product liquid-air partition coefficient greater than or equal to −7) |
| CCCCCCCCC=CC=O [Material 828] | K (Log of liquid dish neat product liquid-air partition coefficient greater than or equal to −7) |
| CC1=CC2C(C(C)C)CCC(C)(O)C2CC1 (stereo not drawn) [Material 1046] | K (Log of liquid dish neat product liquid-air partition coefficient greater than or equal to −7) |
| CCC=C(C)C(O)CCCCC (stereo not drawn) [Material 1104] | K (Log of liquid dish neat product liquid-air partition coefficient greater than or equal to −7) |
| CC1=CC(=O)CC(C)C12CCC(=C(C)C)C2 (stereo not drawn) [Material 610] | K (Log of liquid dish neat product liquid-air partition coefficient greater than or equal to −7) |
| CC(=O)CCCC(C)CCCC(C)CCCC(C)C (stereo not drawn) [Material 782] | K (Log of liquid dish neat product liquid-air partition coefficient greater than or equal to −7) |
| CC(C)C1OCCC2(CC3CCC2(C)C3(C)C)O1 (stereo not drawn) [Material 659] | K (Log of liquid dish neat product liquid-air partition coefficient greater than or equal to −7) |
| CC1=CCCC2(C)CCC(C(C)(C)O)CC12 (stereo not drawn) [Material 775] | K (Log of liquid dish neat product liquid-air partition coefficient greater than or equal to −7) |

Same assay, conditions: class code letter within Comment Code

| Compound | Log of liquid dish neat product liquid-air partition coefficient (Comment Code K/L) |
| --- | --- |
| C=CCCCCCCCCC(=O)OCCC(C)C [Material 234] | K (Log of liquid dish neat product liquid-air partition coefficient greater than or equal to −7) |
| CC(C=O)Cc1ccc(C(C)(C)C)cc1 (stereo not drawn) [Material 162] | K (Log of liquid dish neat product liquid-air partition coefficient greater than or equal to −7) |
| Cc1cccc(Oc2ccccc2)c1 [Material 114] | K (Log of liquid dish neat product liquid-air partition coefficient greater than or equal to −7) |
| CCCCCCC(=O)OCc1ccco1 [Material 339] | K (Log of liquid dish neat product liquid-air partition coefficient greater than or equal to −7) |
| CCCCCCCCCCCC(=O)OCCC(C)C [Material 238] | K (Log of liquid dish neat product liquid-air partition coefficient greater than or equal to −7) |
| C=CCCC(=O)C1CCCC(C)(C)C1 (stereo not drawn) [Material 334] | K (Log of liquid dish neat product liquid-air partition coefficient greater than or equal to −7) |
| CC1=CCC(C)C(C)C12C=CC(C)O2 (stereo not drawn) [Material 192] | K (Log of liquid dish neat product liquid-air partition coefficient greater than or equal to −7) |
| CCC(=O)CCC1C(C)=CCCC1(C)C (stereo not drawn) [Material 293] | K (Log of liquid dish neat product liquid-air partition coefficient greater than or equal to −7) |
| CC1=CCC(=C(C)C)CCC(C)=CCC1 [Material 295] | K (Log of liquid dish neat product liquid-air partition coefficient greater than or equal to −7) |
| CC1=CCC(C(C)CC2CCCC2=O)CC1 (stereo not drawn) [Material 69] | K (Log of liquid dish neat product liquid-air partition coefficient greater than or equal to −7) |
| CCCCCCCCCCCC(OC)OC [Material 421] | K (Log of liquid dish neat product liquid-air partition coefficient greater than or equal to −7) |
| CCCCCCCCCC(OCC)OCC [Material 473] | K (Log of liquid dish neat product liquid-air partition coefficient greater than or equal to −7) |
| c1ccc(CCc2ccccc2)cc1 [Material 457] | K (Log of liquid dish neat product liquid-air partition coefficient greater than or equal to −7) |
| CCCCCCC#CC(OC)OC [Material 3] | K (Log of liquid dish neat product liquid-air partition coefficient greater than or equal to −7) |
| CCCCCCCCCCCCCC(=O)OC(C)C [Material 196] | K (Log of liquid dish neat product liquid-air partition coefficient greater than or equal to −7) |
| C=C1C2CCC(C)(C)C1CCC(OC)C2 (stereo not drawn) [Material 7] | K (Log of liquid dish neat product liquid-air partition coefficient greater than or equal to −7) |
| O=C1CCCCCCCCCCCCCCO1 [Material 370] | K (Log of liquid dish neat product liquid-air partition coefficient greater than or equal to −7) |
| CC(C)C1CCC(C(C)O)CC1 (stereo not drawn) [Material 83] | K (Log of liquid dish neat product liquid-air partition coefficient greater than or equal to −7) |
| CCOC(=O)C1C2C=CC(C2)C1C(C)C (stereo not drawn) [Material 280] | K (Log of liquid dish neat product liquid-air partition coefficient greater than or equal to −7) |
| c1ccc(Cc2ccccc2)cc1 [Material 429] | K (Log of liquid dish neat product liquid-air partition coefficient greater than or equal to −7) |

Same assay, conditions: code letters K, L

| Compound | Comment Code: Log of liquid dish neat product liquid-air partition coefficient |
| --- | --- |
| CCC(C)c1nccnc1OC (stereo not drawn) [Material 845] | K (Log of liquid dish neat product liquid-air partition coefficient greater than or equal to −7) |
| CC(=O)C1=C(C)[C@@H]2C[C@@]3(C1)[C@H](C)CC[C@H]3C2(C)C [Material 1129] | K (Log of liquid dish neat product liquid-air partition coefficient greater than or equal to −7) |
| C=CC(C)CCCC(C)(C)O (stereo not drawn) [Material 437] | K (Log of liquid dish neat product liquid-air partition coefficient greater than or equal to −7) |
| CC=Cc1ccc(OC(C)=O)c(OC)c1 [Material 213] | K (Log of liquid dish neat product liquid-air partition coefficient greater than or equal to −7) |
| COc1ccc(C(C)=O)cc1 [Material 761] | K (Log of liquid dish neat product liquid-air partition coefficient greater than or equal to −7) |
| CCCCCOC(=O)c1ccccc1 [Material 672] | K (Log of liquid dish neat product liquid-air partition coefficient greater than or equal to −7) |
| c1ccc(COCc2ccccc2)cc1 [Material 454] | K (Log of liquid dish neat product liquid-air partition coefficient greater than or equal to −7) |
| CCC(C)(C)C1CCC(O)CC1 (stereo not drawn) [Material 995] | K (Log of liquid dish neat product liquid-air partition coefficient greater than or equal to −7) |
| N#C/C=C/c1ccccc1 [Material 556] | K (Log of liquid dish neat product liquid-air partition coefficient greater than or equal to −7) |
| CCOCCOCCO [Material 579] | K (Log of liquid dish neat product liquid-air partition coefficient greater than or equal to −7) |
| C=C1C2CCC(C)(C)C1CCC(OC)C2 (stereo not drawn) [Material 7] | K (Log of liquid dish neat product liquid-air partition coefficient greater than or equal to −7) |
| CC1(C)C2CCC3(C2)C1C1(CCC3(C)C)OCCO1 (stereo not drawn) [Material 1145] | K (Log of liquid dish neat product liquid-air partition coefficient greater than or equal to −7) |
| O=C(O)CCc1ccccc1 [Material 255] | K (Log of liquid dish neat product liquid-air partition coefficient greater than or equal to −7) |
| CC(C)C1OCCC2(CC3CCC2(C)C3(C)C)O1 (stereo not drawn) [Material 659] | K (Log of liquid dish neat product liquid-air partition coefficient greater than or equal to −7) |
| CC1=CCCC2(C)CCC(C(C)(C)O)CC12 (stereo not drawn) [Material 775] | K (Log of liquid dish neat product liquid-air partition coefficient greater than or equal to −7) |

Same assay, conditions: codes K/L of the Comment Code, Table 1

| Compound | Comment Code: Log of liquid dish neat product liquid-air partition coefficient |
| --- | --- |
| CC(=O)C1=C(C)[C@@H]2C[C@@]3(C1)[C@H](C)CC[C@H]3C2(C)C [Material 1129] | K (Log of liquid dish neat product liquid-air partition coefficient greater than or equal to −7) |
| CC1(C)C2CCC3(C2)C1C1(CCC3(C)C)OCCO1 (stereo not drawn) [Material 1145] | K (Log of liquid dish neat product liquid-air partition coefficient greater than or equal to −7) |

— US20160090556A1, “PRODUCTS COMPRISING MALODOR REDUCTION MATERIALS” (The Procter & Gamble Company, priority 2014, published 2016)
